Blank lines part the entries; values can stand above or below the compound they belong to.
How the values were obtained:
[1] = system: collagen-induced arthritis; experiment: Inhibitory Effect on Collagen-Induced Arthritis (No. 1), sole thickness; assay type: in vivo, DBA/1J mice; settings: mean ± SD
Method: (§1) The preventive effect on the onset of collagen-induced arthritis was tested by using DBA/1J mice in groups of 5-8. Specifically, type II collagen was mixed with an equal volume of Freund's complete adjuvant and emulsified to prepare a 1 mg/ml emulsion. Mice were sensitized by administering 0.1 ml of this emulsion intracutaneously to the root of the tail. After 21 days, the mice were additionally immunized by emulsifying type II collagen in the same manner as before and administering 0.1 ml of the emulsion intraperitoneally so as to induce arthritis.
Starting from the day of the first sensitization with type II collagen, Compound 1 was orally administered, once a day, for 43 days in a dose of 10 or 30 mg/kg body weight. Similarly, each of Compounds 2 and 3 was intraperitoneally administered, once a day, for 43 days in a dose of 1 or 10 mg/kg body weight. Their inhibitory effect on collagen-induced arthritis was evaluated by measuring the sole thicknesses of the hind legs periodically with digital vernier calipers.

[2] = parameters: species or system DBA/1J mice; settings: mouse, in vivo, po, 100 mg/kg
Method: (§2) Among the compounds in accordance with the present invention, each of Compounds 1, 2 and 3 was orally or intraperitoneally administered to eight DBA/1J mice in a dose of 100 mg/kg body weight. […] This seems to indicate that the compounds used in the present invention have no or very little, if any, acute toxicity. Moreover, Compound 1, in a dose of 100 mg/kg body weight, or Compound 3, in a dose of 30 mg/kg body weight, was orally administered to eight mice of the aforesaid strain for 40 days. […] Thus, the compounds of the present invention have little subacute toxicity. Since other compounds in accordance with the present invention are estimated to have similar properties, the compounds of the present invention can be used very safely.

[3] = system: neogenesis of tumor vessels induced by the transplanted mouse tumor S180; experiment: Inhibitory Effect on Vascularization Using the Mouse Back Subcutaneous Transplantation Method; assay type: in vivo, male ICR mouse; settings: for Vascularization score: oral 100 mg/kg, 5 days, mean ± SE
Method: The inhibitory effect of Compounds 1 and 3 in accordance with the present invention on the neogenesis of tumor vessels induced by the transplanted mouse tumor S180 was tested using the mouse back subcutaneous transplantation method. Specifically, 1×10^7 S180 cells were injected into a chamber formed by attaching a Millipore filter having a pore size of 0.45 μm to either side of a Millipore ring. After the injection hole was stopped up, this chamber was transplanted into an air sac formed beneath the skin of the back of a male ICR mouse (9-10 weeks old). Starting from the day of transplantation, a test compound or a solvent control comprising a 0.5% carboxymethylcellulose solution was orally administered for 5 days. After the skin was separated on the fifth day of transplantation, an O-ring of 10 mm internal diameter having the same shape as the Millipore ring was placed on the part of the skin which had been in contact with the chamber, observed under a stereoscopic microscope, and photographed.
In the photographs so taken, the degree of vascularization was rated 0, 1, 2 or 3 according to the number of 3 mm or longer tortuous blood vessels characteristic of tumoral vessels, and scored on the following basis.
0: No tumoral vessel was observed.
1: One tumoral vessel was observed.
2: Two tumoral vessels were observed.
3: Three or more tumoral vessels were observed.

Acute toxicity in mice = assay type: in vivo, DBA/1J mice; settings: 100 mg/kg; for evidence of toxicity, single administration: mouse, in vivo; for mortality, single administration: oral or intraperitoneal, eight DBA/1J mice
Method: as §2

carrageenin edema = experiment: Effect on Carrageenin Edema; assay type: in vivo, ICR mice
Method: The effect on carrageenin edema was tested by using ICR mice in groups of 6-7. Specifically, Compound 3 was orally administered thereto in a dose of 3 or 30 mg/kg body weight. As a positive control drug, indomethacin was similarly administered in a dose of 20 mg/kg body weight. After 30 minutes, 25 μl of a 1% carrageenin solution was subcutaneously injected into the sole of the right hind leg. Two hours after the administration of carrageenin, the thickness of the sole was measured with digital vernier calipers, and the degree of edema (%) based on the thickness measured before administration was calculated.

[4] = system: collagen-induced arthritis; settings: oral administration, mice; cited from earlier work
[5] = Levels of Orally Administered Test Compounds in Blood Plasma; assay type: in vivo, male ICR mice
Method: Each of Compound 3 and MI43 was orally administered to fasted male ICR mice (weighing 18-21 g) in a dose of 25 mg/kg. Blood samples were collected from the mice 5 minutes, 30 minutes, 4 hours, 8 hours and 24 hours after administration (3 mice per point for Compound 3 and 5 mice per point for MI43). These blood samples were centrifuged to obtain blood plasma samples. Each of the blood plasma samples was subjected to the following pretreatment and then analyzed by high-performance liquid chromatography (HPLC). 1.8 ml of a saturated aqueous solution of ammonium sulfate and 1.0 ml of methanol were added to and mixed with 0.2 ml of the blood plasma sample. This mixture was shaken with 3.5 ml of ethyl acetate. After this mixture was centrifuged, the ethyl acetate layer was separated. Moreover, the aqueous layer was shaken with 3.5 ml of ethyl acetate, followed by centrifugation. The ethyl acetate layer thus obtained was combined with the previously separated ethyl acetate layer, and this mixture was evaporated to dryness under reduced pressure. The resulting residue was redissolved in 0.2 ml of a 50% aqueous solution of acetonitrile and used as a sample for HPLC.
The analytical conditions for HPLC (using the CCTD system manufactured by Toso Co., Ltd.) were as follows: A YMC A-312 column (ODS 6×150 mm; manufactured by YMC Co., Ltd.) was used as the column. As the mobile phase, a 60:40 mixture of acetonitrile and 0.1% aqueous TFA was used for Compound 3, and a 40:60 mixture of acetonitrile and 0.1% aqueous TFA was used for MI43. The rest compound was eluted at a flow velocity of 1.0 ml/min and detected by UV light at 244 nm.

[6] = system: various animal cells and human cancer cells; settings: cited from earlier work
adjuvant arthritis = settings: oral administration, rats; cited from earlier work
[7] = system: collagen-induced arthritis; experiment: Inhibitory Effect on Collagen-Induced Arthritis (No. 2), arthritis score; assay type: in vivo, DBA/1J mice; settings: oral
Method: as §1
Animals having arthritis induced in the same manner as described above were used in groups of 7-8. Compound 3 was orally administered, once a day, for 21 days following the additional immunization in a dose of 1, 3 or 10 mg/kg body weight. For comparative purposes, MI43 was similarly administered to another group in a dose of 30 mg/kg body weight. According to the degree of rubor, swelling and rigidity in each of the forelegs and hind legs of the experimental animals, their inhibitory effect on collagen-induced arthritis was evaluated on the following basis by a score ranging from 0 to 4 (with a maximum value of 16).
0: No symptom is observed.
2: Two or more small joints, or a relatively large joint such as that of the wrist or ankle, show rubor or swelling.
4: The total swelling of the hand or foot reaches its peak and, moreover, is accompanied by joint rigidity.

Structure (SMILES): COc1cc(O)c2c(=O)oc(C(=O)O)cc2c1 [Compound 1, 8-hydroxy-6-methoxy-1-oxo-1H-2-benzopyran-3-carboxylic Acid]
Sole thickness (sum of left and right, mm), after 37 days ([1]; oral, 10 mg/kg/day, **p < 0.01 vs control (8.02 ± 0.82)): 6.44 ± 0.40 mm
Sole thickness (sum of left and right, mm), after 37 days ([1]; oral, 30 mg/kg/day, **p < 0.01 vs control (8.02 ± 0.82)): 6.12 ± 0.22 mm
evidence of toxicity, 40 days [2]: no animal showed evidences of toxicity
mortality, 40 days [2]: No animal died
Vascularization score ([3]; n = 9, p < 0.05 vs control (3.00 ± 0.00), Table 3): 1.67 ± 0.53
inhibition of vascularization induced by tumor cell S180 (in words) ([3]; oral, 100 mg/kg body weight): significantly inhibited vascularization
evidence of toxicity, single administration (Acute toxicity in mice): no animal showed evidences of toxicity
mortality, single administration (Acute toxicity in mice): No animal died

Structure (SMILES): COc1cc(O)c2c(=O)oc(CC(=O)O)cc2c1 [Compound 2, (8-hydroxy-6-methoxy-1-oxo-1H-2-benzopyran-3-yl)acetic Acid]
Sole thickness (sum of left and right, mm), after 37 days ([1]; intraperitoneal, 1 mg/kg/day, *p < 0.05 vs control (8.02 ± 0.82)): 6.81 ± 1.07 mm
Sole thickness (sum of left and right, mm), after 37 days ([1]; intraperitoneal, 10 mg/kg/day, *p < 0.05 vs control (8.02 ± 0.82)): 7.19 ± 0.40 mm
evidence of toxicity, single administration (Acute toxicity in mice): no animal showed evidences of toxicity
mortality, single administration (Acute toxicity in mice): No animal died

Structure (SMILES): COc1ccc2c(c1)c(CC(=O)O)c(C)n2C(=O)c1ccc(Cl)cc1 [Indomethacin, reference compound]
effect on carrageenin edema (in words) (carrageenin edema; 20 mg/kg): significan inhibitory effect
Degree of edema (%) (carrageenin edema; oral 20 mg/kg, 2 h after carrageenin, mean ± SE, **p < 0.01 vs control (47.4 ± 2.8)): 18.5 ± 3.5%

concentration at 5 min ([5]; mouse, plasma, oral 25 mg/kg, 5 min, read-out: Concentration of unchanged M143 in blood plasma, mean): 811 ng/mL
concentration at 0.5 h ([5]; mouse, plasma, oral 25 mg/kg, 30 min, read-out: Concentration of unchanged M143 in blood plasma, mean): 155 ng/mL
concentration at 4 h ([5]; mouse, plasma, oral 25 mg/kg, 4 hr, read-out: Concentration of unchanged M143 in blood plasma, mean): 48 ng/mL
Tmax ([5]; mouse, plasma, unchanged compound, oral 25 mg/kg, read-out: time of peak / highest plasma level after administration (converted)): 5 min
number of metabolites detected in plasma ([5]; oral 25 mg/kg): 5
plasma concentration course after 5 minutes (in words) ([5]; unchanged MI43, oral 25 mg/kg): decreased sharply
Structure (SMILES): COc1cc(O)c2c(=O)oc(CO)cc2c1 [MI43, 3-hydroxymethyl-6-methoxy-8-hydroxy-1H-2-benzopyran-1-one, reference compound]
inhibition of collagen-induced arthritis (in words) [4]: significantly inhibit adjuvant arthritis in rats and collagen-induced arthritis in mice
growth-inhibiting activity (in words) [6]: growth-inhibiting activity against various animal cells and human cancer cells
Vascularization score ([3]; n = 11, control 2.93 ± 0.07, Table 4): 1.09 ± 0.39
inhibition of adjuvant arthritis (in words) (adjuvant arthritis): significantly inhibit adjuvant arthritis in rats
reduction in arthritis score (in words) ([7]; 30 mg/kg body weight): no significant reduction in arthritis score
Score after 37 days ([7]; 30 mg/kg/day, mean ± SE, maximum 16, control 9.25 ± 1.35): 5.29 ± 1.77

— US6020363A, “Isocoumarin derivatives and use thereof in drugs” (Mercian Corporation, priority 1998, dated 2000)
